# Measured values published in US12384753B2, “17-beta-hydroxysteroid dehydrogenase type 13 inhibitors and methods of use thereof” (Enanta Pharmaceuticals, Inc., priority 2021, dated 2025).
# Molecular target: Recombinant human HSD17B13 (Homo sapiens (Human), UniProt Q7Z5P4)
# Test: HSD17B13 rapid-fire mass spectrometry assay (RF/MS assay)
# Type: biochemical
# Conditions: inhibition of HSD17B13; LTB4 10 μM, NAD+ 0.5 mM, RT 3 h; IC50 ranges A-E
# Summary of the method: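 Product 12-oxo-LTB4 and substrate LTB4 quantified by RapidFire triple-quad MS in negative mode, giving percent conversion. Reaction: 80 nM recombinant hHSD17B13, 10 μM LTB4, 0.5 mM NAD+, compound up to 100 μM, pH 7.5, RT, 3 h. Variable-slope fit gave IC50; run in duplicate.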
# Recombinant human HSD17B13, sequence (Q7Z5P4 20-300): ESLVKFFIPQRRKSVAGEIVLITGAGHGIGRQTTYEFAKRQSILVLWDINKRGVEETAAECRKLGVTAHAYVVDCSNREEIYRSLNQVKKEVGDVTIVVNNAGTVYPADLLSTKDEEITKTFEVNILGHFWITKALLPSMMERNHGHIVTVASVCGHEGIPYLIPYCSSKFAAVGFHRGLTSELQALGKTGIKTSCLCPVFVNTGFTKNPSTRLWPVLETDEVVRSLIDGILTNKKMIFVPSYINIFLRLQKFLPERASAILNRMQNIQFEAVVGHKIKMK
row,IC50,Structure (SMILES)
1,500 to 1000 nM,"COc1cc(C(=O)O)ccc1NS(=O)(=O)c1csc(-c2ccc3cc(C4=CCC(C)(C)CC4)ccc3c2)n1 [Example 459, 4-((2-(6-(4,4-dimethylcyclohex-1-en-1-yl)naphthalen-2-yl)thiazole)-4-sulfonamido)-3-methoxybenzoic acid]"
2,1000 to 100000 nM,COc1cc(C(=O)O)ccc1NS(=O)(=O)N1Cc2nc(-c3ccc([C@H]4CC[C@H](C(F)(F)F)CC4)cc3)sc2C1 [Example 460]
3,100 to 500 nM,COc1cc(C(=O)O)ccc1NS(=O)(=O)c1csc(-c2ccc3c(c2)OCCO3)n1 [Example 462]
4,100 to 500 nM,"COc1cc(C(=O)O)ccc1NS(=O)(=O)c1cccc(C#Cc2cccc(OC(F)(F)F)c2)n1 [Example 463, 3-methoxy-4-((6-((3-(trifluoromethoxy)phenyl)ethynyl)pyridine)-2-sulfonamido)benzoic acid]"
5,100 to 500 nM,COc1cc(C(=O)O)ccc1NS(=O)(=O)c1coc(-c2ccc(C3=CCC(C)(C)CC3)cc2)n1 [Example 464]
6,100 to 500 nM,COc1cc(C(=O)O)ccc1NS(=O)(=O)c1coc(-c2ccc(C(C)(C)C)cc2)n1 [Example 465]
7,< 100 nM,"COc1cc(C(=O)O)ccc1NS(=O)(=O)c1coc(-c2ccc(C(C)C)cc2)n1 [Example 466, 4-((2-(4-isopropylphenyl)oxazole)-4-sulfonamido)-3-methoxybenzoic acid]"
8,< 100 nM,COc1cc(C(=O)O)ccc1NS(=O)(=O)c1coc(-c2ccc(C3CCC(C(F)(F)F)CC3)cc2)n1 (stereo not shown) [Example 468]
9,100 to 500 nM,CCCCC[C@H]1CC[C@H](c2ccc(-c3cccc(S(=O)(=O)Nc4ccc(C(=O)O)cc4OC)c3F)cc2)CC1 [Example 470]
10,100 to 500 nM,COc1cc(C(=O)O)ccc1NS(=O)(=O)c1cccc(-c2ccc(C3=CCC(C(F)(F)F)CC3)cc2)c1F (stereo not shown) [Example 471]
11,100 to 500 nM,COc1cc(C(=O)O)ccc1NS(=O)(=O)c1cccc(-c2ccc(C3CCCCC3)cc2)c1 [Example 472]
12,100 to 500 nM,COc1cc(C(=O)O)ccc1NS(=O)(=O)c1cccc(-c2ccc(C3CCC(C)(C)CC3)cc2)c1F [Example 473]
13,100 to 500 nM,"COc1cc(C(=O)O)ccc1NS(=O)(=O)c1cccc(-c2ccc([C@H]3CC[C@@H](C(F)(F)F)CC3)cc2)c1F [Example 474, 4-((2-fluoro-4′-((1s,4s)-4-(trifluoromethyl)cyclohexyl)-[1,1′-biphenyl])-3-sulfonamido)-3-methoxybenzoic acid]"
14,< 100 nM,"COc1cc(C(=O)O)ccc1NS(=O)(=O)c1cccc(-c2ccc([C@H]3CC[C@H](C(F)(F)F)CC3)cc2)c1F [Example 475, 4-((2-fluoro-4′-((1r,4r)-4-(trifluoromethyl)cyclohexyl)-[1,1′-biphenyl])-3-sulfonamido)-3-methoxybenzoic acid]"
15,100 to 500 nM,COc1cc(C(=O)O)ccc1NS(=O)(=O)c1cccc(-c2ccc(C3CCC(F)(F)CC3)cc2)c1F [Example 476]
16,100 to 500 nM,"COc1cc(C(=O)O)ccc1NS(=O)(=O)c1cccc(-c2ccc(C3=CCC(C(C)(C)C)CC3)cc2)c1F (stereo not shown) [Example 477, 4-((4″-(tert-butyl)-2-fluoro-2″,3″,4″,5″-tetrahydro-[1,1′:4′,1″-terphenyl])-3-sulfonamido)-3-methoxybenzoic acid]"
17,100 to 500 nM,"COc1cc(C(=O)O)ccc1NS(=O)(=O)c1cccc(-c2ccc([C@H]3CC[C@H](C(C)(C)C)CC3)cc2)c1F [Example 478, 4-((4′-((1r,4r)-4-(tert-butyl)cyclohexyl)-2-fluoro-[1,1′-biphenyl])-3-sulfonamido)-3-methoxybenzoic acid]"
18,100 to 500 nM,"COc1cc(C(=O)O)ccc1NS(=O)(=O)c1cccc(-c2ccc([C@H]3CC[C@@H](C(C)(C)C)CC3)cc2)c1F [Example 479, 4-((4′-((1s,4s)-4-(tert-butyl)cyclohexyl)-2-fluoro-[1,1′-biphenyl])-3-sulfonamido)-3-methoxybenzoic acid]"
19,100 to 500 nM,CC[C@H]1CC[C@@H](c2ccc(-c3nc(S(=O)(=O)Nc4ccc(C(=O)O)cc4OC)co3)cc2)CC1 [Example 481]
20,< 100 nM,COc1cc(C(=O)O)c(F)cc1NS(=O)(=O)c1coc(-c2ccc(C3=CCC(C)(C)CC3)cc2)n1 [Example 482]

row,IC50,Structure (SMILES)
1,< 100 nM,COc1cc(C(=O)O)c(F)cc1NS(=O)(=O)c1coc(-c2ccc(C3=CCC(C(F)(F)F)CC3)cc2)n1 (stereo not shown) [Example 483]
2,1000 to 100000 nM,"COc1cc(P(=O)(O)O)ccc1NS(=O)(=O)c1csc(-c2ccc(C3CCCCC3)cc2)n1 [Example 484, (4-((2-(4-cyclohexylphenyl)thiazole)-4-sulfonamido)-3-methoxyphenyl)phosphonic acid]"
3,100 to 500 nM,COc1cc(C(=O)O)ccc1NS(=O)(=O)c1csc(-c2ccc(C#CC3CCCCC3)cc2)n1 [Example 485]
4,500 to 1000 nM,COc1cc(C(=O)O)ccc1NS(=O)(=O)c1csc(-c2ccc(C#Cc3ccc(F)cc3)cc2)n1 [Example 486]
5,100 to 500 nM,CCC1CC=C(c2ccc(-c3nc(S(=O)(=O)Nc4ccc(C(=O)O)cc4OC)co3)cc2)CC1 (stereo not shown) [Example 487]
6,100 to 500 nM,CC[C@H]1CC[C@H](c2ccc(-c3nc(S(=O)(=O)Nc4ccc(C(=O)O)cc4OC)co3)cc2)CC1 [Example 488]
7,100 to 500 nM,CC[C@H]1CC[C@@H](c2ccc(-c3nc(S(=O)(=O)Nc4ccc(C(=O)O)cc4OC)co3)cc2)CC1 [Example 489]
8,< 100 nM,COc1cc(C(=O)O)c(F)cc1NS(=O)(=O)c1coc(-c2ccc([C@H]3CC[C@H](C(F)(F)F)CC3)cc2)n1 [Example 492]
9,< 100 nM,COc1cc(C(=O)O)c(F)cc1NS(=O)(=O)c1coc(-c2ccc([C@H]3CC[C@@H](C(F)(F)F)CC3)cc2)n1 [Example 493]
10,< 100 nM,CCC1CC=C(c2ccc(-c3nc(S(=O)(=O)Nc4cc(F)c(C(=O)O)cc4OC)co3)cc2)CC1 (stereo not shown) [Example 494]
11,< 100 nM,CC[C@H]1CC[C@H](c2ccc(-c3nc(S(=O)(=O)Nc4cc(F)c(C(=O)O)cc4OC)co3)cc2)CC1 [Example 495]
12,< 100 nM,COc1cc(C(=O)O)c(F)cc1NS(=O)(=O)c1coc(-c2ccc(C3CCC(C)(C)CC3)cc2)n1 [Example 496]
13,100 to 500 nM,COc1cc(C(=O)O)c(F)cc1NS(=O)(=O)c1coc(-c2ccc(C3CCCCC3)cc2)n1 [Example 497]
14,< 100 nM,COc1cc(C(=O)O)c(F)cc1NS(=O)(=O)c1cccc(-c2ccc(C3=CCC(C(C)(C)C)CC3)cc2)c1F (stereo not shown) [Example 498]
15,< 100 nM,COc1cc(C(=O)O)c(F)cc1NS(=O)(=O)c1cccc(-c2ccc(C3=CC[C@H](C(C)(C)C)CC3)cc2)c1F [Example 499]
16,< 100 nM,COc1cc(C(=O)O)c(F)cc1NS(=O)(=O)c1cccc(-c2ccc([C@H]3CC[C@@H](C(C)(C)C)CC3)cc2)c1F [Example 500]
17,< 100 nM,CC[C@H]1CC[C@H](c2ccc(-c3cccc(S(=O)(=O)Nc4cc(F)c(C(=O)O)cc4OC)c3F)cc2)CC1 [Example 501]
18,100 to 500 nM,COc1cc(C(=O)O)ccc1NS(=O)(=O)c1csc(-c2ccc(C3CCC(OC)CC3)cc2)n1 (stereo not shown) [Example 503]
19,100 to 500 nM,CCC[C@H]1CC[C@H](C2CCC(c3nc(S(=O)(=O)Nc4ccc(C(=O)O)cc4OC)cs3)CC2)CC1 (stereo partly shown) [Example 504]
20,100 to 500 nM,COc1c(NS(=O)(=O)c2csc(-c3ccc(C4CCC(C)(C)CC4)cc3)n2)ccc(C(=O)O)c1F [Example 505]

row,IC50,Structure (SMILES)
1,< 100 nM,COc1cc(C(=O)O)ccc1NS(=O)(=O)c1csc(-c2ccc([C@H]3CC[C@H](C(F)(F)F)CC3)cc2)n1 [Example 506]
2,100 to 500 nM,COc1cc(C(=O)O)ccc1NS(=O)(=O)c1csc(-c2ccc(C34CC5CC(CC(C5)C3)C4)cc2)n1 [Example 507]
3,< 100 nM,CCCCC[C@H]1CC[C@H](c2ccc(-c3nc(S(=O)(=O)Nc4ccc(C(=O)O)cc4OC)cs3)cc2)CC1 [Example 508]
4,< 100 nM,COc1cc(C(=O)O)c(F)cc1NS(=O)(=O)c1csc(-c2ccc([C@H]3CC[C@H](C(F)(F)F)CC3)cc2)n1 [Example 509]
5,< 100 nM,COc1cc(C(=O)O)c(F)cc1NS(=O)(=O)c1csc(-c2ccc(C3=CCC(C)(C)CC3)cc2F)n1 [Example 510]
6,< 100 nM,COc1cc(C(=O)O)c(F)cc1NS(=O)(=O)c1csc(-c2ccc(C3CCC(C)(C)CC3)cc2F)n1 [Example 511]
7,< 100 nM,COc1cc(C(=O)O)c(F)cc1NS(=O)(=O)c1csc(-c2ccc(C3=CCC(C)(C)CC3)c(F)c2)n1 [Example 512]
8,< 100 nM,COc1cc(C(=O)O)c(F)cc1NS(=O)(=O)c1csc(-c2ccc(C3CCC(C)(C)CC3)c(F)c2)n1 [Example 513]
9,< 100 nM,COc1cc(C(=O)O)c(F)cc1NS(=O)(=O)c1csc(C#CC2CCC(C)(C)CC2)n1 [Example 514]
10,< 100 nM,COc1cc(C(=O)O)c(F)cc1NS(=O)(=O)c1csc(-c2ccc(C3=CCC(C)(C)CC3)c(C(F)(F)F)c2)n1 [Example 515]
11,100 to 500 nM,COc1cc(C(=O)O)c(F)cc1NS(=O)(=O)c1csc(-c2cc(F)c(C3=CCC(C)(C)CC3)c(F)c2)n1 [Example 516]
12,100 to 500 nM,COc1cc(C(=O)O)c(F)cc1NS(=O)(=O)c1csc(-c2cc(F)c(C3CCC(C)(C)CC3)c(F)c2)n1 [Example 517]
13,100 to 500 nM,COc1cc(C(=O)O)c(F)cc1NS(=O)(=O)c1csc(-c2cc(F)c(C3=CCC(C)(C)CC3)cc2F)n1 [Example 518]
14,100 to 500 nM,COc1cc(C(=O)O)c(F)cc1NS(=O)(=O)c1csc(-c2cc(F)c(C3CCC(C)(C)CC3)cc2F)n1 [Example 519]
15,100 to 500 nM,COc1cc(C(=O)O)c(F)cc1NS(=O)(=O)c1csc(-c2ccc(C3=CCC(C)(C)CC3)c(F)c2F)n1 [Example 520]
16,100 to 500 nM,COc1cc(C(=O)O)c(F)cc1NS(=O)(=O)c1csc(-c2ccc(C3CCC(C)(C)CC3)c(F)c2F)n1 [Example 521]
17,< 100 nM,COc1cc(C(=O)O)c(F)cc1NS(=O)(=O)c1csc(-c2ccc(C3=CCC(C)(C)CC3)cc2C(F)(F)F)n1 [Example 522]
18,< 100 nM,COc1cc(C(=O)O)c(F)cc1NS(=O)(=O)c1csc(-c2ccc(C3=CCC(C)(C)CC3)c(OC)c2)n1 [Example 523]
